Test results published in the NIST ThermoML archive (doi:10.1021/acs.jced.8b00681).

Test: mn = molality of the nth substance listed, in mol/kg
Details: 100 kPa, Liquid, Frequency=2 MHz, Linear variable-path acoustic interferometer

OC[C@H]1OC(O)C[C@@H](O)[C@@H]1O (stereo partly drawn) [2-deoxy-D-glucose] + O
speed of sound [m/s]
Details	m1 = 0.04452	m1 = 0.06258	m1 = 0.08916	m1 = 0.09804	m1 = 0.1031	m1 = 0.1275
288.15 K	1468.5	1469.6	1471.1	1471.6	1471.9	1473.2
298.15 K	1499.2	1500.1	1501.4	1501.9	1502.1	1503.3
308.15 K	1522.1	1523	1524.3	1524.7	1524.9	1526.1
318.15 K	1538.2	1539	1540.1	1540.5	1540.7	1541.6

O=C[C@H](O)[C@@H](O)[C@H](O)[C@H](O)CO [D-glucose] + O
speed of sound [m/s]
Details	m1 = 0.054	m1 = 0.07085	m1 = 0.09905	m1 = 0.1196	m1 = 0.1221	m1 = 0.1388
288.15 K	–	1470.8	1472.7	1474.2	1474.3	1475.5
298.15 K	–	1501.1	1502.9	1504.2	1504.3	1505.3
308.15 K	1523.1	1524.7	1527.4	1529.3	1529.5	1531.1
318.15 K	–	1540.7	1543.2	1545	1545.2	1546.6

OC[C@H]1O[C@H](OC[C@H]2O[C@H](O[C@]3(CO)O[C@H](CO)[C@@H](O)[C@@H]3O)[C@H](O)[C@@H](O)[C@@H]2O)[C@H](O)[C@@H](O)[C@H]1O [D-raffinose] + O
speed of sound [m/s]
Details	m1 = 0.05849	m1 = 0.0723	m1 = 0.087	m1 = 0.1083	m1 = 0.1225	m1 = 0.143
288.15 K	1478.1	1481	1484.1	1488.6	1491.6	1496
298.15 K	1509	1512	1515.1	1519.7	1522.7	1527.1
308.15 K	1531.9	1534.8	1537.9	1542.3	1545.3	1549.7
318.15 K	1548.3	1551.1	1554.1	1558.5	1561.5	1565.8

O=C[C@H](O)[C@H](O)[C@H](O)CO [D-ribose] + O
speed of sound [m/s]
Details	m1 = 0.04514	m1 = 0.06075	m1 = 0.08352	m1 = 0.112	m1 = 0.1348	m1 = 0.1523
288.15 K	1468.7	1469.7	1471.1	1472.9	1474.3	1475.4
298.15 K	1499.1	1499.9	1501	1502.5	1503.6	1504.5
308.15 K	1522	1522.7	1523.7	1525.1	1526.1	1526.9
318.15 K	1538.3	1538.9	1539.9	1541	1542	1542.8

N.O=P(O)(O)O [ammonium dihydrogen phosphate] + O
speed of sound [m/s]
Details	288.15 K	298.15 K	308.15 K	318.15 K
m1 = 0.5	1506.4	1534.2	1555.1	1570.8
m1 = 1	1554.5	1579.6	1598.1	1610.2
m1 = 1.5	1609.2	1629.9	1645.1	1654.4
m1 = 2	1672.6	1686.2	1697.2	1703.1

CO[C@H]1O[C@H](CO)[C@@H](O)[C@H](O)[C@H]1O [methyl-α-D-glucopyranoside] + O
speed of sound [m/s]
Details	m1 = 0.05678	m1 = 0.06847	m1 = 0.08732	m1 = 0.1192	m1 = 0.1293	m1 = 0.1466
288.15 K	1470.7	1471.7	1473.2	1475.8	1476.6	1478
298.15 K	1501.2	1502	1503.5	1506	1506.7	1508
308.15 K	1524	1524.9	1526.3	1528.6	1529.4	1530.6
318.15 K	1540.5	1541.3	1542.7	1545	1545.7	1546.9

O=P([O-])(O)O.[Na+] [sodium dihydrogen phosphate] + O
speed of sound [m/s]
Details	288.15 K	298.15 K	308.15 K	318.15 K
m1 = 0.5	1516.7	1547.3	1567.5	1582.6
m1 = 1	1563.2	1598	1618.9	1638.8
m1 = 1.5	1607.3	1649	1675	1704.8
m1 = 2	1649.2	1700.3	1735.7	1782.8

O=P([O-])([O-])[O-].[K+].[K+].[K+] [tripotassium phosphate] + O
speed of sound [m/s]
Details	288.15 K	298.15 K	308.15 K	318.15 K
m1 = 0.5	1586.2	1598.1	1609.9	1622.6
m1 = 1	1693.5	1698.6	1704.1	1708
m1 = 1.5	1789.2	1791.8	1793.8	1796
m1 = 2	1878.3	1882.5	1885.8	1889.4
